From patent EP1715036A1, “Crystal structure of an Aurora-B/INCENP complex” (Boehringer Ingelheim International GmbH, priority 2005, dated 2006) come the findings set out here.

A word on the IC50: it is the concentration needed to halve the response being measured.

Assay type in all cases: biochemical
Assay [1] addresses monomeric human Aurora-B (Homo sapiens, UniProt Q96GD4). The experiment in a line: kinase assay on monomeric human Aurora-B. The settings on record: assay conditions which allow similar signal/noise ratios.
In assay [2] the target is T1, G96V-Aurora-B^60-361/INCENP^790-847 (Xenopus laevis, UniProt Q6DE08, G96V).
T1 construct: GST (N, cleaved yes); made in house; host or cells: E. coli BL21(DE3) with pUBS520 helper plasmid
Briefly: radioactive kinase filterbinding assay, IC50 determination. To be noted: G96V enzyme complex at 5 nM; 100 µM ATP, 10 µM substrate peptide; spread printed ±13 nM. The method, then: (§1) The ATP-KM value for the G96V mutant (83 µM) is similar to the wt enzyme (61 µM). The kinase assays are run in the presence of 100 µM ATP using 10 µM of a substrate peptide (see Materials and Methods).
(§2) Hesperadin is a potent inhibitor of human Aurora-B (Hauf, 2003). To determine whether Hesperadin inhibits also xAurora-B /INCENP complexes, a kinase filterbinding assay is employed for IC50-determinations. Both, the G96V and the wt enzyme complex are used at 5 nM concentration in the assays.
(§3) Purified xAurora-B/INCENP is snap frozen and stored for further use at -80°C in desalting buffer (50 mM Tris/Cl pH 8.0, 150mM NaCl, 0.1mM EDTA, 0.03% Brij-35, 10% glycerol, 1mM DTT). xAurora-B/INCENP is incubated in the presence or absence of a test compound dilutions in DMSO prior to addition of substrate peptide and P33-γ-ATP. Samples without a test compound or without substrate peptide are used as high or low-controls, respectively. IC50 values are determined using Graph Pad Prism software.
(§4) For the filter-binding kinase assay (reaction volume 50 ul /well), 96-well PP-Microplates (Greiner, 655 201) are used. To 10µl compound in 25% DMSO are added 30µl PROTEIN-MIX (166 µM ATP,1x kinase buffer [50mM Tris/Cl pH7.5,25mM MgC12, 25mM NaCl], 10-20 ng xAurora-B/INCENP) followed by an 15 min incubation at room temperature (agitating, 350rpm). […]

For assay [3], the target named is T2, wt-Aurora-B^60-361/INCENP^790-847 (Xenopus laevis, UniProt Q6DE08).
T2 construct: GST (N, cleaved yes); made in house; host or cells: E. coli BL21(DE3) with pUBS520 helper plasmid
Described as above. The settings on record: wt enzyme complex at 5 nM; 100 µM ATP, 10 µM substrate peptide; spread printed ± 2 nM. How it is done:
as §1, §2, §3, §4

T2 sequence (Q6DE08 60-361): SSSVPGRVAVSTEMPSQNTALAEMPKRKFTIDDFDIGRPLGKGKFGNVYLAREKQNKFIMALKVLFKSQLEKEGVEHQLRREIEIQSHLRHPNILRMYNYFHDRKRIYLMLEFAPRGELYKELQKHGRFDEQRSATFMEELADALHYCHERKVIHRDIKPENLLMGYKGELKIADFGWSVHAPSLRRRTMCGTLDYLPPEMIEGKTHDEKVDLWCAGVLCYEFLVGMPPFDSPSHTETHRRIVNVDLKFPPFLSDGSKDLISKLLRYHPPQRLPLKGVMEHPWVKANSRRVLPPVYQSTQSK
T2 sequence (O13024 790-847 partner limits assumed): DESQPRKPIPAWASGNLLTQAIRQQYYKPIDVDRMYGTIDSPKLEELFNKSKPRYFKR
Sequence of monomeric human Aurora-B (Q96GD4 whole entry): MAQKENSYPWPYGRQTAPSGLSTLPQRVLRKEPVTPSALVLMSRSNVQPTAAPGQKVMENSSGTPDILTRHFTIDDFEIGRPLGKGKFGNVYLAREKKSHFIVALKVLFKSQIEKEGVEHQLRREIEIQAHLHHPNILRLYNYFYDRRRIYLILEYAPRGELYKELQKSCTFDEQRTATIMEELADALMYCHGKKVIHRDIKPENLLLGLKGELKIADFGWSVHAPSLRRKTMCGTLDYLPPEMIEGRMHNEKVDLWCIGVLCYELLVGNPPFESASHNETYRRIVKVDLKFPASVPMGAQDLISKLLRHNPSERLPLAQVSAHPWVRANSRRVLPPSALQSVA
T1 sequence (Q6DE08 60-361 G96V): as the sequence (Q6DE08 60-361) above, with G37V counted along it
T1 sequence (O13024 790-847 partner limits assumed): as the sequence (O13024 790-847 partner limits assumed) above

Turning to `CCS(=O)(=O)Nc1ccc2c(c1)/C(=C(/Nc1ccc(CN3CCCCC3)cc1)c1ccccc1)C(=O)N2` [Hesperadin], the IC50 in assay [1] came out at 44 nM; in assay [2], 25 nM; in assay [3], 7 nM.
